Experimental data published in patent US9096598B2 (Merck Sharp & Dohme Corp., priority 2011, dated 2015).

How the values were obtained:
JAK2 = biological target: T1, JAK2 (Homo sapiens, UniProt O60674); assay: Jak Biochemical HTRF Assay (JAK2); conditions: recombinant purified GST-tagged catalytic domain, [ATP] 8.5 μM, values given as range classes
T1 construct: recombinant purified GST-tagged catalytic domain for each enzyme; purchased Invitrogen M4290
Experimental: (§1) Jak Biochemical HTRF Assay Protocol
(§2) The ability of compounds to inhibit the activity of JAK1, JAK2, JAK3, and Tyk2 was measured using a recombinant purified GST-tagged catalytic domain for each enzyme (Invitrogen JAK1 #M4290, JAK2 #M4290, JAK3 #M4290, Tyk2 #M4290) in an HTRF format biochemical assay. The reactions employed a common peptide substrate, LCB-EQEDEPEGDYFEWLW-NH2 (in-house). The basic assay protocol is as follows: First, 250 nL of diluted compounds in DMSO were dispensed into the wells of a dry 384-well Black plate (Greiner #781076) using a Labcyte Echo 555 acoustic dispenser. Subsequent reagent additions employed an Agilent Bravo. Next, 18 μL of 1.11× enzyme and 1.11× substrate in 1× assay buffer (Invitrogen kinase buffer #PV3189, 2 mM DTT, 0.05% BSA) were added to the wells and shaken and then preincubated for 30 minutes at room temperature to allow compound binding to equilibrate. After equilibration, 2 μL of 10×ATP in 1× assay buffer was added to initiate the kinase reaction and the plates were shaken and then incubated at room temperature for 120 minutes. At the end of the incubation, 20 μL of 2× stop buffer (streptavidin-Dylight 650 (Thermo #84547B/100 mL), Eu-tagged pY20 antibody (Perkin Elmer #AD0067), EDTA, HEPES, and Triton) was added to quench the reaction. Plates were shaken and centrifuged and then incubated 60 minutes at room temperature and then read on a Perkin Elmer Envision (λex=337 nm, λem=665 and 615 nm, TRF delay time=20 μs). HTRF signal=10,000*665 nm reading/615 nm reading. After normalization to untreated controls, the percent inhibition of the HTRF signal at each compound concentration was calculated. The plot of percent inhibition versus the log of compound concentration was fit with a 4-parameter dose response equation to calculate IC50 values.
(§3) Final reaction conditions were:
(§4) Examples of the instant invention were evaluated in JAK2 and JAK3 in vitro binding assays. Table 13 tabulates the biological data disclosed for the instant invention as a range of JAK2 and JAK3 IC50 values (A: IC50≦10 nM; B: 10 nM>IC50≦500 nM C: IC50>500 nM).

JAK3 = biological target: T2, JAK3 (Homo sapiens, UniProt P52333); assay: Jak Biochemical HTRF Assay (JAK3); conditions: recombinant purified GST-tagged catalytic domain, [ATP] 2.9 μM, values given as range classes
T2 construct: recombinant purified GST-tagged catalytic domain for each enzyme; purchased Invitrogen M4290
Experimental: as §1, §2, §3, §4

T1 sequence (O60674 849-1124 limits assumed): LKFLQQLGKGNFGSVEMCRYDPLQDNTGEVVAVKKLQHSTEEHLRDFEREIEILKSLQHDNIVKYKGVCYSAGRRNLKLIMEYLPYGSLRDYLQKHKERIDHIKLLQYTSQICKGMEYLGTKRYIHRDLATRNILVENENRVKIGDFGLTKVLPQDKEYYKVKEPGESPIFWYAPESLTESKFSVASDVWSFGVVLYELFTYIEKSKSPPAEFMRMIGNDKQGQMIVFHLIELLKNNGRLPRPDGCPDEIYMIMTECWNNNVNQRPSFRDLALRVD
T2 sequence (P52333 822-1111 limits assumed): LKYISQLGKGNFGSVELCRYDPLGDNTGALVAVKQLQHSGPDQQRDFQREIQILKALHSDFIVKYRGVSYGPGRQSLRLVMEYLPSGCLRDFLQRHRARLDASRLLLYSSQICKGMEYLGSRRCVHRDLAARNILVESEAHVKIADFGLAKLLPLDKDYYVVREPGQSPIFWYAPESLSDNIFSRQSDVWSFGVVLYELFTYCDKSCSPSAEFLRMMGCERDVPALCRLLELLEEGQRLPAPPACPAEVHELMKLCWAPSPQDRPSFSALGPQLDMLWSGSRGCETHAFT

| SMILES | IC50 (JAK2) | IC50 (JAK3) |
| --- | --- | --- |
| C[C@@H](Nc1cncc(-c2c[nH]c3ncc(S(C)(=O)=O)cc23)c1)C(=O)NCC(F)(F)F [Example 1-34, N~2~-{5-[5-(methylsulfonyl)-1H-pyrrolo[2,3-b]pyridin-3-yl]pyridin-3-yl}-N-(2,2,2-trifluoroethyl)-D-alaninamide] | > 500 nM | ≤ 10 nM |
| C[C@@H](Nc1cncc(-c2c[nH]c3ncc(Cl)c(F)c23)c1)C(=O)NCC(F)(F)F [Example 1-36, N~2~-[5-(5-chloro-4-fluoro-1H-pyrrolo[2,3-b]pyridin-3-yl)pyridin-3-yl]-N-(2,2,2-trifluoroethyl)-D-alaninamide] | > 500 nM | 10 to 500 nM |
| O=C(NCC(F)(F)F)[C@H]1CCCC[C@H]1Nc1cncc(-c2c[nH]c3ncc(F)cc23)c1 [Example 1-37, (1S,2R)-2-{[5-(5-fluoro-1H-pyrrolo[2,3-b]pyridin-3-yl)pyridin-3-yl]amino}-N-(2,2,2-trifluoroethyl)cyclohexane-carboxamide] | 10 to 500 nM | ≤ 10 nM |
| N#Cc1cnc2[nH]cc(-c3cncc(N[C@@H]4CCCC[C@@H]4C(=O)NCC(F)(F)F)c3)c2c1 [Example 1-38, (1S,2R)-2-{[5-(5-cyano-1H-pyrrolo[2,3-b]pyridin-3-yl)pyridin-3-yl]amino}-N-(2,2,2-trifluoroethyl)cyclohexane-carboxamide] | 10 to 500 nM | ≤ 10 nM |
| C[C@H](Nc1cc(-c2c[nH]c3ncc(Cl)cc23)cnc1F)C(=O)NCC(F)(F)F [Example 1-39, N~2~-[5-(5-chloro-1H-pyrrolo[2,3-b]pyridin-3-yl)-2-fluoropyridin-3-yl]-N-(2,2,2-trifluoroethyl)alaninamide] | 10 to 500 nM | ≤ 10 nM |
| CC(C)[C@H](Nc1cncc(-c2c[nH]c3ncc(C#N)cc23)c1)C(=O)NCC(F)(F)F [Example 1-41, N~2~-[5-(5-cyano-1H-pyrrolo[2,3-b]pyridin-3-yl)pyridin-3-yl]-N-(2,2,2-trifluoroethyl)valinamide] | 10 to 500 nM | ≤ 10 nM |
| CC(C)C(Nc1cncc(-c2c[nH]c3ncc(C(N)=O)cc23)c1)C(=O)NCC(F)(F)F (stereo not shown) [Example 1-42, 3-[5-({2-methyl-1-[(2,2,2-trifluoroethyl)carbamoyl]propyl}amino)pridin-3-yl]-1H-pyrrolo[2,3-b]pyridine-5-carboxamide] | 10 to 500 nM | ≤ 10 nM |
| CC(C)(Nc1cncc(-c2c[nH]c3ncc(F)cc23)c1)C(=O)NCC(F)(F)F [Example 1-43, N~2~-[5-(5-fluoro-1H-pyrrolo[2,3-b]pyridin-3-yl)pyridin-3-yl]-2-methyl-N-(2,2,2-trifluoroethyl)alaninamide] | 10 to 500 nM | ≤ 10 nM |
| CC(C)(Nc1cncc(-c2c[nH]c3ncc(C#N)cc23)c1)C(=O)NCC(F)(F)F [Example 1-44, N~2~-[5-(5-cyano-1H-pyrrolo[2,3-b]pyridin-3-yl)pyridin-3-yl]-2-methyl-N-(2,2,2-trifluoroethyl)alaninamide] | 10 to 500 nM | ≤ 10 nM |
| COc1cnc2[nH]cc(-c3cncc(N[C@H](C(=O)NCC(F)(F)F)C(C)C)c3)c2c1 [Example 1-45, N~2~-[5-(5-methoxy-1H-pyrrolo[2,3-b]pyridin-3-yl)pyridin-3-yl]-N-(2,2,2-trifluoroethyl)valinamide] | 10 to 500 nM | ≤ 10 nM |
| C[C@@H](Nc1cncc(-c2c[nH]c3ncc(C(N)=O)cc23)c1)C(=O)NCC(F)(F)F [Example 1-46, 3-[5-({(1R)-1-methyl-2-oxo-2-[(2,2,2-trifluoroethyl)amino]ethyl}amino)pyridin-3-yl]-1H-pyrrolo[2,3-b]pyridine-5-carboxamide] | 10 to 500 nM | ≤ 10 nM |
| CC(C)(Nc1cncc(-c2c[nH]c3ncc(C(N)=O)cc23)c1)C(=O)NCC(F)(F)F [Example 1-47, 3-[5-({1,1-dimethyl-2-oxo-2-[(2,2,2-trifluoroethyl)amino]ethyl}amino)pyridin-3-yl]-1H-pyrrolo[2,3-b]pyridine-5-carboxamide] | 10 to 500 nM | ≤ 10 nM |
| O=C(NCC(F)(F)F)C(Nc1cncc(-c2c[nH]c3ncc(Cl)cc23)c1)C1CC1 (stereo not shown) [Example 1-48, 2-{[5-(5-chloro-1H-pyrrolo[2,3-b]pyridin-3-yl)pyridin-3-yl]amino}-2-cyclopropyl-N-(2,2,2-trifluoroethyl)acetamide] | 10 to 500 nM | ≤ 10 nM |
| CC(C)(O)[C@@H](Nc1cncc(-c2c[nH]c3ncc(Cl)cc23)c1)C(=O)NCC(F)(F)F [Example 1-49, N~2~-[5-(5-chloro-1H-pyrrolo[2,3-b]pyridin-3-yl)pyridin-3-yl]-3-hydroxy-N-(2,2,2-trifluoroethyl)-D-valinamide] | 10 to 500 nM | ≤ 10 nM |

The remaining lines, values ahead:

| IC50 (JAK2) | IC50 (JAK3) | SMILES |
| --- | --- | --- |
| 10 to 500 nM | ≤ 10 nM | C[C@@H](Nc1cnnc(-c2c[nH]c3ncc(Cl)cc23)c1)C(=O)NCC(F)(F)F [Example 1-24, N~2~-[6-(5-chloro-1H-pyrrolo[2,3-b]pyridin-3-yl)pyridazin-4-yl]-N-(2,2,2-trifluoroethyl)-D-alaninamide] |
| 10 to 500 nM | ≤ 10 nM | C[C@@H](Nc1cnnc(-c2c[nH]c3ncc(C(F)(F)F)cc23)c1)C(=O)NCC(F)(F)F [Example 1-25, N-(2,2,2-trifluoroethyl)-N~2~-{6-[5-(trifluoromethyl)-1H-pyrrolo[2,3-b]pyridin-3-yl]pyridazin-4-yl}-D-alaninamide] |
| 10 to 500 nM | 10 to 500 nM | Clc1cnc2[nH]cc(-c3cc(N4CCCC4c4nccs4)cnn3)c2c1 (stereo not shown) [Example 1-26, 5-chloro-3-{5-[2-(1,3-thiazol-2-yl)pyrrolidin-1-yl]pyridazin-3-yl}-1H-pyrrolo[2,3-b]pyridine] |
| 10 to 500 nM | ≤ 10 nM | CC(C)(Nc1cncc(-c2c[nH]c3ncc(Cl)cc23)c1)C(=O)NCC(F)(F)F [Example 1-27, N~2~-[5-(5-chloro-1H-pyrrolo[2,3-b]pyridin-3-yl)pyridin-3-yl]-2-methyl-N-(2,2,2-trifluoroethyl)alaninamide] |
| 10 to 500 nM | ≤ 10 nM | Clc1cnc2[nH]cc(-c3cncc(N4CCCC4c4nccs4)c3)c2c1 (stereo not shown) [Example 1-28, 5-chloro-3-{5-[2-(1,3-thiazol-2-yl)pyrrolidin-1-yl]pyridin-3-yl}-1H-pyrrolo[2,3-b]pyridine] |
| 10 to 500 nM | ≤ 10 nM | C[C@@H](Nc1cncc(-c2c[nH]c3ncc(Cl)cc23)c1)C(=O)NCC(F)(F)F [Example 1-29, N~2~-[5-(5-chloro-1H-pyrrolo[2,3-b]pyridin-3-yl)pyridin-3-yl]-N-(2,2,2-trifluoroethyl)-D-alaninamide] |
| 10 to 500 nM | 10 to 500 nM | C[C@@H](Nc1cncc(-c2c[nH]c3ncc(F)cc23)c1)C(=O)NCC(F)(F)F [Example 1-30, N~2~-[5-(5-fluoro-1H-pyrrolo[2,3-b]pyridin-3-yl)pyridin-3-yl]-N-(2,2,2-trifluoroethyl)-D-alaninamide] |
| 10 to 500 nM | ≤ 10 nM | COc1cnc2[nH]cc(-c3cncc(N[C@H](C)C(=O)NCC(F)(F)F)c3)c2c1 [Example 1-31, N~2~-[5-(5-methoxy-1H-pyrrolo[2,3-b]pyridin-3-yl)pyridin-3-yl]-N-(2,2,2-trifluoroethyl)-D-alaninamide] |
| 10 to 500 nM | ≤ 10 nM | C[C@@H](Nc1cncc(-c2c[nH]c3ncc(C#N)cc23)c1)C(=O)NCC(F)(F)F [Example 1-32, N~2~-[5-(5-cyano-1H-pyrrolo[2,3-b]pyridin-3-yl)pyridin-3-yl]-N-(2,2,2-trifluoroethyl)-D-alaninamide] |
| 10 to 500 nM | ≤ 10 nM | O=C(NCC(F)(F)F)[C@H]1CCCC[C@H]1Nc1cncc(-c2c[nH]c3ncc(Cl)cc23)c1 [Example 1-33, (1S,2R)-2-{[5-(5-chloro-1H-pyrrolo[2,3-b]pyridin-3-yl)pyridin-3-yl]amino}-N-(2,2,2-trifluoroethyl)cyclohexane-carboxamide] |
| 10 to 500 nM | ≤ 10 nM | CC(C(=O)NCC(F)(F)F)n1ccc2ncc(-c3c[nH]c4ncc(Cl)cc34)cc21 (stereo not shown) [Example 1-35, 2-[6-(5-chloro-1H-pyrrolo[2,3-b]pyridin-3-yl)-1H-pyrrolo[3,2-b]pyridin-1-yl]-N-(2,2,2-trifluoroethyl)propanamide] |
| ≤ 10 nM | ≤ 10 nM | NC(=O)c1cnc2[nH]cc(-c3cncc(N[C@@H]4CCCC[C@@H]4C(=O)NCC(F)(F)F)c3)c2c1 [Example 1-40, 3-[5-({(1R,2S)-2-[(2,2,2-trifluoroethyl)carbamoyl]cyclo-hexyl}amino)pyridin-3-yl]-1H-pyrrolo[2,3-b]pyridine-5-carboxamide] |
